How the values were obtained:
[1] = test system: ethanol-responsive essential tremor; experiment: Five-patient open-label trial of sodium oxybate, blinded WHIGET tremor rating (patients #4, 5); type: in vivo, human; conditions: for WHIGET TOTAL SUSTENTION score: range 0-6; for Rx effect, WHIGET TOTAL ACTION (improvement in tremor): listed as sodium oxybate, monosodium salt
From the text: Five patients were enrolled in a trial from the Movement Disorders Division of Columbia University Medical Center during the fall of 2004. All patients were afflicted with hyperkinetic movement disorders that responded to ethanol (defined as a noticeable change to the patient), and all were refractory to treatment with conventional medications or could not tolerate them. The Medical Center's Institutional Review Board approved the trial, and written and verbal informed consent were obtained from all patients prior to enrollment.
The dose and timing of all other drugs were kept constant throughout the trial, and patients were not withdrawn from other medications. Patients #1-3 were examined and videotaped using the Unified Myoclonus Rating Scale (UMRS), and patients #4 and 5 were examined and videotaped using the Washington Heights Inwood Tremor Rating Scale (WHIGET) (see Appendix I). Frucht S. J., et al. Adv Neurol 89:361-76 (2002); Louis, E. D., et al. Mov Disord 16:89-93 (2001).
Side effects were defined as either minor or serious (leading to hospitalization) using good clinical practice standards (www.who.int/medicines/library/par/ggcp/GCPGuidePharmatrials), and patients were asked to report side effects at each visit. After initial examination and videotaping, patients were given 1 gm of sodium oxybate by mouth (2 ml of the standard 0.5 gm/ml solution dissolved in 60 ml of water). One hour later, the senior author repeated the examination and videotaping. […] After two weeks taking 2 gm twice daily, the procedure was repeated after a 3 gm office dose, and finally two weeks after receiving 3 gm twice daily, the procedure was repeated after a 4 gm office dose. The maximum dose allowed in the trial was 4 gm twice daily. Patients and the senior author determined at each visit whether or not to proceed to the next dose level, based principally on their ability to tolerate the most recent dose regimen. After deciding on a maximum tolerated dose, patients received a dose in the office 0.5 gm less and the examination was videotaped.
The entire videotape segments and patient-writing samples from each visit were copied, and were blinded to trial order and identifying features, and were randomly ordered for review using a random number table. A movement disorder expert blinded to trial design and dose schedule, scored each videotape. Sub-scores for each visit were calculated as described previously. Frucht S. J., et al. Adv Neurol 89:361-76 (2002). We modified section 5 of the UMRS in which functional performance (pouring water, using a soup spoon) is performed only with the dominant arm (section V). […] This increased the maximum score of section 5 of the UMRS from 20 to 28.

[2] = metabolized to carbon dioxide and water; cited from earlier work
NREM and REM sleep = conditions: about 30-60 mg/kg doses, healthy human volunteers; cited from earlier work
[3] = test system: medication-refractory hyperkinetic movements; experiment: Twenty-patient trial: clinical course (onset, wear-off, continuation); type: in vivo, human; conditions: noted by most patients at higher doses
From the text: Twelve men and 8 women enrolled. Results from patients #6, and #s 1, 2, 7, 12, and 13 were reported previously. Frucht, S. J., et al. Mov Disord 20:745-51 (2005); Frucht, S. J., et al. Mov Disord 20:1330-7 (2005). Mean age/symptom duration was 43.9 yrs/12.3 yrs (myoclonus) and 71.2 yrs/26.7 yrs (ET). Patients with myoclonus were examined and videotaped at each visit using the Unified Myoclonus Rating Scale (UMRS), and patients with ET were examined and videotaped using the modified Washington Heights Inwood Genetic Essential Tremor Rating Scale (WHIGET; Appendix 1). Frucht, S. J., et al. Mov Disord 20:1330-7 (2005). After initial baseline examination and videotaping, patients took 1 gm of sodium oxybate by mouth (2 ml of the standard 0.5 gm/ml solution dissolved in 60 ml of water), and one hour later the videotaped examination was repeated. Patients were maintained on a dose of 1 gm T.I.D. (taken before meals) until their next office visit two weeks later, when the examination and videotaping were repeated one hour after receiving 1.5 gm of sodium oxybate. Subsequent visits and dose titrations at two-week intervals were repeated until the maximum dose was reached (3 gm T.I.D), patients were satisfied with the results of treatment, or until they developed side effects that they viewed as troublesome. […]

[4] = test system: medication-refractory, ethanol-responsive ET; experiment: Twenty-patient open-label trial of sodium oxybate, blinded WHIGET (ET patients); type: in vivo, human; conditions: for Kinetic tremor score: dose 0 score 15.4; for Postural tremor score: dose 0 score 2.4
From the text: Twenty patients age 18 or older were recruited from a clinical practice at the Movement Disorders Division of Columbia University Medical Center. Eligible patients with medication-refractory, ethanol-responsive myoclonus (6 PHM, 3 MD, 2 PME) or ET (9 patients) (Table 1) were offered enrollment from February 2004 to March 2005. The medical center's institutional review board approved the protocol, and written informed consent was obtained from all participants. All had myoclonus or ET that improved (by self-report) with ingestion of ethanol. All patients were medication-refractory, defined as obtaining inadequate benefit from best medical treatment or being unable to tolerate treatment. The dose and timing of other medications were kept constant before and during the trial.
Twelve men and 8 women enrolled. Results from patients #6, and #s 1, 2, 7, 12, and 13 were reported previously. Frucht, S. J., et al. Mov Disord 20:745-51 (2005); Frucht, S. J., et al. Mov Disord 20:1330-7 (2005). Mean age/symptom duration was 43.9 yrs/12.3 yrs (myoclonus) and 71.2 yrs/26.7 yrs (ET). Patients with myoclonus were examined and videotaped at each visit using the Unified Myoclonus Rating Scale (UMRS), and patients with ET were examined and videotaped using the modified Washington Heights Inwood Genetic Essential Tremor Rating Scale (WHIGET; Appendix 1). Frucht, S. J., et al. Mov Disord 20:1330-7 (2005). After initial baseline examination and videotaping, patients took 1 gm of sodium oxybate by mouth (2 ml of the standard 0.5 gm/ml solution dissolved in 60 ml of water), and one hour later the videotaped examination was repeated. Patients were maintained on a dose of 1 gm T.I.D. (taken before meals) until their next office visit two weeks later, when the examination and videotaping were repeated one hour after receiving 1.5 gm of sodium oxybate. Subsequent visits and dose titrations at two-week intervals were repeated until the maximum dose was reached (3 gm T.I.D), patients were satisfied with the results of treatment, or until they developed side effects that they viewed as troublesome. Dosing for patients #1, 2, 6, 7, 12, and 13 was slightly different (1 gm BID, with dose increments of 2 gm to maximum dose of 4 gm BID), but office visits and videotaping protocol were otherwise identical.
The entire videotape segments and writing samples from each visit were copied and randomly ordered, and identifying features that might reveal trial order or drug dose were removed. A blinded movement disorder neurologist scored each videotape segment using the UMRS or the WHIGET. Sub-scores for each visit were calculated as described previously. Frucht, S. J., et al. Mov Disord 20:1330-7 (2005). Based on data from the first two ET cases, and assuming alpha=0.05, power=80%, and a 25% reduction in post-treatment tremor severity, we calculated that eight ET cases were required. A similar number of myoclonus patients would provide >80% power to detect a 25% reduction in the severity of post-treatment action myoclonus. Paired t tests were performed for scores pre- and post-treatment.

In the case of O=C([O-])CCCO.[Na+] [GHB, 4-hydroxybutanoic acid monosodium salt], the “WHIGET TOTAL ACTION score” value ([1]; patient 4, 1 gm, range 0-40, 0 gm score 19.5) is reported as 10, the “WHIGET TOTAL SUSTENTION score” value ([1]; patient 4, 1.5 gm, 0 gm score 2.5) is reported as 0.5 and the “WHIGET TOTAL ACTION score” value ([1]; patient 4, 1.5 gm, range 0-40, 0 gm score 19.5) is reported as 4. For the same compound, the “WHIGET TOTAL SUSTENTION score” value ([1]; patient 4, 2 gm, 0 gm score 2.5) was 0, the “WHIGET TOTAL ACTION score” value ([1]; patient 4, 2 gm, range 0-40, 0 gm score 19.5) was 5 and the “Rx effect, WHIGET TOTAL ACTION (improvement in tremor)” value ([1]; patient 4) was 79%. The “WHIGET TOTAL ACTION score” value ([1]; patient 5, 1 gm, 0 gm score 23) was 19, the “WHIGET TOTAL ACTION score” value ([1]; patient 5, 1.5 gm, 0 gm score 23) was 13.5 and the “WHIGET TOTAL SUSTENTION score” value ([1]; patient 5, 1.5 gm, 0 gm score 4) was 2.5. The “WHIGET TOTAL ACTION score” value ([1]; patient 5, 2 gm, 0 gm score 23) was 12, the “WHIGET TOTAL SUSTENTION score” value ([1]; patient 5, 2 gm, 0 gm score 4) was 3 and the “Rx effect, WHIGET TOTAL ACTION (improvement in tremor)” value ([1]; patient 5) was 48%. For the same compound, the “Blinded rating of the severity of torticollis” value ([1]; patient #4, 1 gm twice-daily dose, before: moderate) was “mild”, the kinetic tremor amplitude ([1]; patient #4, after 2 gm) was “markedly diminished” and the kinetic tremor amplitude ([1]; patient #5, after 2 gm) was “the amplitude has diminished”. For the same compound, the active metabolites [2] was “has no active metabolites”, the “duration of normal sequence of NREM and REM sleep” value (NREM and REM sleep) was 2 to 3 h and the wear-off of benefit [3] was “four to five hours”. For the same compound, the Kinetic tremor score ([4]; 1 gm, p 0.011*) was 11.5 (0.011)*, the Postural tremor score ([4]; 1 gm, p 0.029*) was 1.7 (0.029)* and the Postural tremor score ([4]; 1.5 gm, p 0.001**) was 1.1 (0.001)**. For the same compound, the Kinetic tremor score ([4]; 1.5 gm, p 0.006**) was 8.8 (0.006)**, the Postural tremor score ([4]; 2 gm, p 0.006**) was 1.4 (0.006)** and the Kinetic tremor score ([4]; 2 gm, p 0.006**) was 9.1 (0.006)**. The “dose of maximal improvement” value ([4]; ET, postural and kinetic tremor scores) was 1.5 gm, the “time at which improvement in action tremor during pouring was evident” value ([4]; patient #15 (ET), after 1.5 gm) was 45 min and the “time at which improvement in action tremor during pouring was obvious” value ([4]; patient #15 (ET), after 1.5 gm) was 60 min. For the same compound, the “kinetic tremor during tasks (drawing, sipping water from spoon)” value ([4]; patient #17 (ET), FIG. 4) was “Improvement in kinetic tremor during tasks was evident”.

From patent publication US20090137565A1, “Method for treatment of movement disorders” (The Trustees of Columbia University in the City of New York, priority 2004, published 2009)
